Laboratory results taken from ChEMBL document CHEMBL5143574, “Unraveling the anti-virulence potential and antifungal efficacy of 5-aminotetrazoles using the zebrafish model of disseminated candidiasis” (Eur J Med Chem, 2022).
In brackets after ≈: the same amount, converted by molar mass. Activity calls are given as the source filed them. The rule behind the calls is not given here.

How the values were obtained:
Candida albicans [1] = experiment: Anti-virulence activity against Candida albicans SC5314 assessed as inhibition of fungal filamentation by measuring reduction in hyphae formation in YPS plus uridine medium at 5 uM incubated for 3 to 5 days by stereomicroscopic analysis; type: functional, organism-based; conditions: time 3-5 day
[2] = Toxicity in zebrafish embryos assessed as mortality treated at 6 hpf and measured at 120 hpf by stereomicroscopic analysis; design: species or system Danio rerio; conditions: in vivo
Candida albicans [3] = experiment: Anti-virulence activity against Candida albicans SC5314 assessed as inhibition of fungal filamentation by measuring reduction in hyphae formation in Spider medium at 5 uM incubated for 3 to 5 days by stereomicroscopic analysis; type: functional, organism-based; conditions: time 3-5 day
Candida albicans [4] = experiment: Antifungal activity against Candida albicans SC5314 assessed as inhibition of fungal growth incubated for 24 hrs by broth microdilution assay; type: functional
Candida albicans [5] = experiment: Anti-virulence activity against Candida albicans SC5314 assessed as inhibition of fungal filamentation by measuring reduction in hyphae formation in RPMI medium at 5 uM incubated for 3 to 5 days by stereomicroscopic analysis; type: functional, organism-based; conditions: time 3-5 day
Candida albicans [6] = experiment: Anti-virulence activity against Candida albicans SC5314 assessed as inhibition of fungal filamentation by measuring reduction in hyphae formation in Lee medium at 5 uM incubated for 3 to 5 days by stereomicroscopic analysis; type: functional, organism-based; conditions: time 3-5 day
Candida albicans [7] = experiment: Anti-virulence activity against Candida albicans SC5314 assessed as inhibition of fungal filamentation by measuring reduction in hyphae formation in YPS medium at 5 uM incubated for 3 to 5 days by stereomicroscopic analysis; type: functional, organism-based; conditions: time 3-5 day
[8] = Toxicity against zebrafish embryo infected with 53-75 RFP expressing cells of Candida albicans M137 assessed as mortality at 2.5 to 10 uM treated at 1 hr post-infection and measured on day 4 post-infection; design: species or system Danio rerio; conditions: 96 h, dose 2.5-10 µM, time 4 day
[9] = Toxicity in zebrafish embryos assessed as toxic responses at 200 uM treated at 6 hpf and measured at 120 hpf by stereomicroscopic analysis; design: species or system Danio rerio; conditions: in vivo, 24 h
Candida albicans [10] = experiment: Anti-virulence activity against Candida albicans SC5314 assessed as inhibition of fungal filamentation by measuring reduction of hyphae formation in GlcNAc medium at 1.3 uM incubated for 3 to 5 days by stereomicroscopic analysis; type: functional, organism-based; conditions: time 3-5 day
Candida albicans [11] = experiment: Anti-virulence activity against Candida albicans SC5314 assessed as inhibition of fungal filamentation by measuring reduction of hyphae formation in Spider medium at 1.3 uM incubated for 3 to 5 days by stereomicroscopic analysis; type: functional, organism-based; conditions: time 3-5 day
Candida albicans [12] = experiment: Anti-virulence activity against Candida albicans SC5314 assessed as inhibition of fungal filamentation by measuring reduction of hyphae formation in SLAD medium at 1.3 uM incubated for 3 to 5 days by stereomicroscopic analysis; type: functional, organism-based; conditions: time 3-5 day
Candida albicans [13] = experiment: Anti-virulence activity against Candida albicans SC5314 assessed as inhibition of fungal filamentation by measuring reduction of hyphae formation in RPMI medium upto 10 uM incubated for 3 to 5 days by stereomicroscopic analysis; type: functional, organism-based; conditions: time 3-5 day
Candida albicans [14] = experiment: Anti-virulence activity against Candida albicans SC5314 assessed as inhibition of fungal filamentation by measuring reduction in hyphae formation in SLAD medium upto 10 uM incubated for 3 to 5 days by stereomicroscopic analysis; type: functional, organism-based; conditions: time 3-5 day
Candida albicans [15] = experiment: Anti-virulence activity against Candida albicans SC5314 assessed as inhibition of fungal filamentation by measuring reduction in hyphae formation in Lee medium upto 10 uM incubated for 3 to 5 days by stereomicroscopic analysis; type: functional, organism-based; conditions: time 3-5 day
Candida albicans [16] = experiment: Anti-virulence activity against Candida albicans SC5314 assessed as inhibition of fungal filamentation by measuring reduction of hyphae formation in YPS medium at 1.3 uM incubated for 3 to 5 days by stereomicroscopic analysis; type: functional, organism-based; conditions: time 3-5 day
Candida albicans [17] = experiment: Anti-virulence activity against Candida albicans SC5314 assessed as inhibition of fungal filamentation by measuring reduction in hyphae formation in Spider medium upto 10 uM incubated for 3 to 5 days by stereomicroscopic analysis; type: functional, organism-based; conditions: time 3-5 day
Candida albicans [18] = experiment: Anti-virulence activity against Candida albicans SC5314 assessed as inhibition of fungal filamentation by measuring reduction in hyphae formation in GlcNAc medium upto 10 uM incubated for 3 to 5 days by stereomicroscopic analysis; type: functional, organism-based; conditions: time 3-5 day
Candida albicans [19] = experiment: Anti-virulence activity against Candida albicans SC5314 assessed as inhibition of fungal filamentation by measuring reduction of hyphae formation in YPS plus uridine medium at 1.3 uM incubated for 3 to 5 days by stereomicroscopic analysis; type: functional, organism-based; conditions: time 3-5 day
Candida albicans [20] = experiment: Anti-virulence activity against Candida albicans SC5314 assessed as inhibition of fungal filamentation by measuring reduction in hyphae formation in YPS plus uridine medium upto 10 uM incubated for 3 to 5 days by stereomicroscopic analysis; type: functional, organism-based; conditions: time 3-5 day
Candida albicans [21] = experiment: Anti-virulence activity against Candida albicans SC5314 assessed as inhibition of fungal filamentation by measuring reduction in hyphae formation in YPS medium upto 10 uM incubated for 3 to 5 days by stereomicroscopic analysis; type: functional, organism-based; conditions: time 3-5 day
Candida albicans [22] = experiment: Anti-virulence activity against Candida albicans SC5314 assessed as inhibition of fungal filamentation by measuring reduction of hyphae formation in Lee medium at 1.3 uM incubated for 3 to 5 days by stereomicroscopic analysis; type: functional, organism-based; conditions: time 3-5 day
Candida albicans [23] = experiment: Anti-virulence activity against Candida albicans SC5314 assessed as inhibition of fungal filamentation by measuring reduction of hyphae formation in RPMI medium at 1.3 uM incubated for 3 to 5 days by stereomicroscopic analysis; type: functional, organism-based; conditions: time 3-5 day
Candida albicans [24] = experiment: Anti-virulence activity against 53-75 RFP expressing cells of Candida albicans M137 in hind brain of zebra fish embryo disseminated candidiasis model assessed as inhibition of fungal filamentation by measuring reduction of hyphae formation in the hind brain at 10 uM treated at 1 hr post-infection and measured on day 4 post infection by fluorescence microscopy; type: functional; conditions: M137, 96 h, time 4 day

Compound: c1ccc(Nc2nnn(CCC34CC5CC(CC(C5)C3)C4)n2)cc1
- Activity (Candida albicans [1]): Active
- LC50 [2]: > 200 µM
- Activity (Candida albicans [3]): Active
- MIC (Candida albicans [4]): > 200 µM
- Activity (Candida albicans [5]): Active
- Activity (Candida albicans [6]): Active
- Activity (Candida albicans [7]): Active

Compound: Cc1cc(Cl)ccc1Nc1nnnn1Cc1ccccc1
- MIC (Candida albicans [4]): 6.4 µM (≈ 1.92 µg/mL)

Compound: Nc1nnnn1-c1ccccc1 [FENAMOLE]
- Activity (Candida albicans [1]): Active
- LC50 [2]: > 200 µM
- Activity (Candida albicans [3]): Active
- MIC (Candida albicans [4]): > 200 µM
- Activity (Candida albicans [5]): Active
- Activity (Candida albicans [6]): Active
- Activity (Candida albicans [7]): Active

Compound: CCCn1nnc(Nc2ccccc2)n1
- Activity (Candida albicans [1]): Active
- LC50 [2]: > 200 µM
- Activity (Candida albicans [3]): Active
- MIC (Candida albicans [4]): > 200 µM
- Activity (Candida albicans [5]): Active
- Activity (Candida albicans [6]): Active
- Activity (Candida albicans [7]): Active

Compound: Nc1nnnn1Cc1ccccc1
- Activity (Candida albicans [1]): Active
- LC50 [2]: > 200 µM
- Activity (Candida albicans [3]): Active
- MIC (Candida albicans [4]): > 200 µM
- Activity (Candida albicans [5]): Active
- Activity (Candida albicans [6]): Active
- Activity (Candida albicans [7]): Active

Compound: CCCn1nnnc1Nc1ccccc1
- Activity (Candida albicans [1]): Active
- LC50 [2]: > 200 µM
- Activity (Candida albicans [3]): Active
- MIC (Candida albicans [4]): > 200 µM
- Activity (Candida albicans [5]): Active
- Activity (Candida albicans [6]): Active
- Activity (Candida albicans [7]): Active

Compound: CC(=O)c1ccc(Nc2nnnn2Cc2ccccc2)cc1
- LC50 [2]: > 200 µM
- MIC (Candida albicans [4]): > 200 µM

Compound: c1ccc(Cn2nnc(Nc3ccccc3)n2)cc1
- Activity (Candida albicans [1]): Active
- LC50 [2]: > 200 µM
- Activity (Candida albicans [3]): Active
- MIC (Candida albicans [4]): > 200 µM
- Activity (Candida albicans [5]): Active
- Activity (Candida albicans [6]): Active
- Activity (Candida albicans [7]): Active

Compound: Nc1nnn[nH]1
- Activity [8]: Non-Toxic
- Activity [9]: Non-Toxic
- Activity (Candida albicans [1]): Active
- LC50 [2]: > 200 µM
- Activity (Candida albicans [3]): Active
- MIC (Candida albicans [4]): > 200 µM
- Activity (Candida albicans [5]): Active
- Activity (Candida albicans [6]): Active
- Activity (Candida albicans [7]): Active

Compound: Nc1nnn(Cc2ccccc2)n1
- LC50 [2]: > 200 µM
- MIC (Candida albicans [4]): > 200 µM

Compound: Nc1nnn(CCC23CC4CC(CC(C4)C2)C3)n1
- Activity (Candida albicans [10]): Active
- Activity (Candida albicans [11]): Active
- Activity (Candida albicans [12]): Active
- Activity (Candida albicans [13]): Active
- LC50 [2]: > 200 µM
- Activity (Candida albicans [14]): Active
- MIC (Candida albicans [4]): > 200 µM
- Activity (Candida albicans [15]): Active
- Activity (Candida albicans [16]): Active
- Activity (Candida albicans [17]): Active
- Activity (Candida albicans [18]): Active
- Activity (Candida albicans [19]): Active
- Activity (Candida albicans [20]): Active
- Activity (Candida albicans [21]): Active
- Activity (Candida albicans [22]): Active
- Activity (Candida albicans [23]): Active

Compound: COc1ccc(Nc2nnnn2Cc2ccccc2)cc1
- Activity (Candida albicans [1]): Active
- LC50 [2]: > 200 µM
- Activity (Candida albicans [3]): Active
- MIC (Candida albicans [4]): > 200 µM
- Activity (Candida albicans [5]): Active
- Activity (Candida albicans [6]): Active
- Activity (Candida albicans [7]): Active

Compound: c1ccc(Nc2nnnn2CCC23CC4CC(CC(C4)C2)C3)cc1
- Activity (Candida albicans [10]): Active
- Activity [8]: Non-Toxic
- Activity (Candida albicans [11]): Active
- inhibition in vivo at 10 µM (Candida albicans [24]): 100%
- Activity (Candida albicans [12]): Active
- Activity (Candida albicans [13]): Active
- LC50 [2]: > 200 µM
- Activity (Candida albicans [14]): Active
- MIC (Candida albicans [4]): > 200 µM
- Activity (Candida albicans [15]): Active
- Activity (Candida albicans [16]): Active
- Activity (Candida albicans [17]): Active
- Activity (Candida albicans [18]): Active
- Activity (Candida albicans [19]): Active
- Activity (Candida albicans [20]): Active
- Activity (Candida albicans [21]): Active
- Activity (Candida albicans [22]): Active
- Activity (Candida albicans [23]): Active

Compound: COC(=O)c1cccc(Nc2nnnn2Cc2ccccc2)c1
- MIC (Candida albicans [4]): 35.4 µM (≈ 11 µg/mL)
